Experimental data as given in patent US8609870B2, “Treating various disorders using TrkB agonists” (Emory University, priority 2008, dated 2013).

Columns and labels:
[1] = target: TrkB extra-cellular domain (ECD) (Homo sapiens, UniProt Q16620); experiment: [3H]-deoxygedunin ligand binding assay, TrkB ECD (Scatchard plot); details: increasing concentrations of radioligand
Method: (§1) Purified TrkB ECD or ICD proteins (10 μg/each) were incubated with different [^3H-deoxygedunin] in 1 ml binding buffer (0.05 M Na/K phosphate buffer (pH 7.1), 200 mM NaCl) (1 nM [^3H]deoxygedunin˜82300 cpm) at 4° C. for 10 minutes. After incubation, the reaction mixture was loaded on filter paper and washed with 3×5 ml Tris buffer (100 mM Tris, pH 7.1). The dried filter paper was put into a small vial and subjected to liquid scintillation counter analysis. The value of the dissociation constant and the number of sites were obtained from Scatchard plots by using the equation r/[L]free=n/Kd−r/Kd, where r is the ratio of the concentration of bound ligand to the total protein concentration and n is the number of binding sites.
To determine whether an identified active compound physically and directly binds to the TrkB receptor, in vitro binding assays can be conducted with purified TrkB extracellular domain (ECD) and intracellular domain (ICD) recombinant proteins. Purified TrkB ECD and ICD (10 μg of each) are incubated with different concentrations of ^3H-labeled identified active compound in 1 ml of binding buffer (0.05M Na/K phosphate buffer, pH 7.1, 200 mM NaCl) at 4° C. for 10 minutes. After the incubation, the reaction mixture is loaded on filter paper. The mixture is washed three times with Tris buffer (100 mM Tris, pH 7.1), and the dried filter paper is put into a small vial and subjected to liquid scintillation counter analysis. […] The value of the dissociate constant and the number of sites will then be obtained from Scatchard plots using the equation r/[L]free=n/Kd−r/Kd, where r is the ratio of the concentration of bound ligand to the total protein concentration and n is the number of binding sites.
To determine whether deoxygedunin binds the intra-cellular domain (ICD) or extra-cellular domain (ECD) of the TrkB receptor, ligand binding assays with [^3H]-deoxygedunin were performed. […] The coprecipitated HA-TrkB was also prominently tyrosine phosphorylated (see FIG. 14, 3rd panel).

[2] = target: TrkA (Homo sapiens, UniProt P04629); experiment: [3H]-deoxygedunin ligand binding assay, TrkA
[3] = target: TrkB intra-cellular domain (ICD) (Homo sapiens, UniProt Q16620); experiment: [3H]-deoxygedunin ligand binding assay, TrkB ICD; details: increasing concentrations of radioligand
Method: as §1
To determine whether an identified active compound physically and directly binds to the TrkB receptor, in vitro binding assays can be conducted with purified TrkB extracellular domain (ECD) and intracellular domain (ICD) recombinant proteins. Purified TrkB ECD and ICD (10 μg of each) are incubated with different concentrations of ^3H-labeled identified active compound in 1 ml of binding buffer (0.05M Na/K phosphate buffer, pH 7.1, 200 mM NaCl) at 4° C. for 10 minutes. After the incubation, the reaction mixture is loaded on filter paper. […]

[4] = tested on: hippocampal neurons; experiment: Oxygen-glucose deprivation (OGD) apoptosis in hippocampal neurons; type: cell-based; details: apoptotic ratio compared to BDNF and DMSO
[5] = tested on: hippocampal neurons; experiment: Glutamate-triggered apoptosis in hippocampal neurons (MR(DEVD)2 / condensed nuclei); type: cell-based; details: 0.5 μM preincubated 30 min, then 50 μM glutamate 16 h
Method: To create and test reporter cell lines. In order to identify small molecules that mimic BDNF and activate TrkB, TrkB stably transfected murine cell lines are created. The T48 and T62 cell lines are created by transfecting basal forebrain SN56 cells, which express negligible TrkB, with a TrkB expression construct. To test expression of TrkB, the cells are treated with BDNF, which is predicted to result in strong phosphorylation of Trk-490 and Akt activation in comparison to the TrkA NTR stably expressing T17 cell line indicating expression of TrkB. To test resistance to apoptosis, the SN56 cells and the T48 cell line are either untreated or treated with BDNF, and then are subjected to an apoptotic assay. The apoptotic assay involves treating the cells with 0.75 μM Staurosporine for 9 hours, and 1 hour before completing the experiment, the cells are treated with 10 μM MR (DEVD)2. The cells then are fixed with 4% paraformaldehyde for 15 minutes, washed with phosphate buffered saline (PBS), and incubated with Hoechst 33342 for 10 minutes. Cover slides are washed with PBS, mounted, and then the cells are examined using a fluorescent microscope to see which cells turn red upon caspase cleavage.
To compare the apoptosis inhibitory activity of identified active compounds, the compounds are preincubated with SN56 and T48 cells, and subsequently are subjected to the fluorescent apoptotic assay as described above. To examine whether these identified active compounds promote neuronal survival, hippocampal neurons are prepared and the cultures are pretreated with the identified active compounds for 30 minutes, followed by treatment with 50 μM glutamate for 16 hours.
Using a cell-based screen as described above in Example 1 (based on the anti-apoptotic action of TrkB signaling) and the chemical library from the Spectrum Collection (described above), 66 positive hits were generated, four of which were gedunin derivatives. […] In this assay, neurons with both cleaved caspase (MR (DEVD)2 red cells) and condensed nuclei (DAPI staining) were counted as apoptotic cells. […]

[6] = target: T1, TrkB (Homo sapiens, UniProt Q16620); experiment: TrkB dimerization assay (GST pull-down, transfected HEK293 cells); type: cell-based
T1 construct: expressed in transfected cells; host or cells: HEK293
Method: HEK293 cells transfected with GST-TrkB and HA-TrkA or TrkB were washed once in PBS, and lysed in 1 ml lysis buffer (50 mM Tris, pH 7.4, 150 mM NaCl, 1 mM EDTA, 0.5% Triton X-100, 1.5 mM Na3VO4, 50 mM NaF, 10 mM sodium pyrophosphate, 10 mM sodium β-glycerophosphate, 1 mM phenylmethylsulfonyl fluoride (PMSF), […], […] leupeptin, […] pepstatin A), and centrifuged for 10 minutes at 14,000×g at 4° C. The supernatant was then transferred to a fresh tube and transfected TrkB receptor was pulled down with glutathione beads. The coprecipitated proteins were resolved on SDS-PAGE. The samples were transferred to a nitrocellular membrane, and immunoblotting analysis was performed with a variety of antibodies.
BDNF is known to bind the TrkB receptor and provoke its dimerization (Barbacid, J. Neurobiol., 25:1386-1403, 1994; Klein et al, Cell, 66:395-403, 1991). To explore whether an identified active compound triggers TrkB receptor dimerization, HEK293 cells are cotransfected with GST-TrkB and HA-TrkB or HA-TrkA. The cells then are treated with BDNF or an identified active compound (0.5 μM) for 30 minutes. […]

Chain of TrkB intra-cellular domain (ICD) (Q16620 455-822 limits assumed): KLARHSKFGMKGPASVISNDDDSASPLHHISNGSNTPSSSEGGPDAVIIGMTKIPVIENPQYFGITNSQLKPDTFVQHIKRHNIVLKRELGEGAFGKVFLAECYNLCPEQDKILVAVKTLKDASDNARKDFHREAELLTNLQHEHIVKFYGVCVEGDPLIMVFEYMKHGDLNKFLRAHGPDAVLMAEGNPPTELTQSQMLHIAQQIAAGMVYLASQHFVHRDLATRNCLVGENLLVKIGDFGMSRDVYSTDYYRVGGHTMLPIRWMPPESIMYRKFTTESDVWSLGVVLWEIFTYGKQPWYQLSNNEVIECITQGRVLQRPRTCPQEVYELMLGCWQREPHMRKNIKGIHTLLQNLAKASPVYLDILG
T1 sequence (Q16620 32-822, species assumed): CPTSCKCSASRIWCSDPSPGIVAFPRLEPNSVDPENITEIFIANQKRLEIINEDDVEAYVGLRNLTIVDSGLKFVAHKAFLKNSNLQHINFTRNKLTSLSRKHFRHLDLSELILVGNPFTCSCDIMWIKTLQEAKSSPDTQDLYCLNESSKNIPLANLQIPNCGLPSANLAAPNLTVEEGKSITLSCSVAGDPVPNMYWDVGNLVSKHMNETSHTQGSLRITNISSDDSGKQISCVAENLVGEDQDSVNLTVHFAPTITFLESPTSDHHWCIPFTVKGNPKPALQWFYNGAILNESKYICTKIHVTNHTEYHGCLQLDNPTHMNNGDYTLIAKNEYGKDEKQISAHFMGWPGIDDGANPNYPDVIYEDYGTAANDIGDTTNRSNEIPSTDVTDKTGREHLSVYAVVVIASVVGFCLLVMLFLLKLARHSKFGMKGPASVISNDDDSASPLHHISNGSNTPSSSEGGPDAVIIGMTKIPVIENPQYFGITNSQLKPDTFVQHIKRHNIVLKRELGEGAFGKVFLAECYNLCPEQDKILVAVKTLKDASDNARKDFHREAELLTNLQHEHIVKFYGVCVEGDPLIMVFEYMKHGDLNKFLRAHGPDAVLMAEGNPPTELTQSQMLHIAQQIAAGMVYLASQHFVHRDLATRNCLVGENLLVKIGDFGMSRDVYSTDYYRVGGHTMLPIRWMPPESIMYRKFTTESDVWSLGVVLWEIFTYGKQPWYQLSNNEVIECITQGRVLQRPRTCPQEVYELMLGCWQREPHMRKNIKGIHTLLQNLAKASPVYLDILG
T1 sequence (Q16620 32-822, species assumed): as above
Chain of TrkB extra-cellular domain (ECD) (Q16620 32-430 limits assumed): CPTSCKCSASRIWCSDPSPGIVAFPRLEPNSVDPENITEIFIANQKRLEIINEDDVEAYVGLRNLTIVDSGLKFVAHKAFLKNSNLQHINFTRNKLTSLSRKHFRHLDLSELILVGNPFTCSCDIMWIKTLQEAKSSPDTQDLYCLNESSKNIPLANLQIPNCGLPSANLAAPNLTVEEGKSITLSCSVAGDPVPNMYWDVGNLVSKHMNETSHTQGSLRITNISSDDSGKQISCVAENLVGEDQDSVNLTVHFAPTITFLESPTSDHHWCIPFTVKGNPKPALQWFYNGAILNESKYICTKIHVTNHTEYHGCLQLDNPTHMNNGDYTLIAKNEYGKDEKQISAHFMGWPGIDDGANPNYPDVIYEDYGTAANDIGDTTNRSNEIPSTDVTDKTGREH
Chain of TrkA (P04629 33-796, species assumed): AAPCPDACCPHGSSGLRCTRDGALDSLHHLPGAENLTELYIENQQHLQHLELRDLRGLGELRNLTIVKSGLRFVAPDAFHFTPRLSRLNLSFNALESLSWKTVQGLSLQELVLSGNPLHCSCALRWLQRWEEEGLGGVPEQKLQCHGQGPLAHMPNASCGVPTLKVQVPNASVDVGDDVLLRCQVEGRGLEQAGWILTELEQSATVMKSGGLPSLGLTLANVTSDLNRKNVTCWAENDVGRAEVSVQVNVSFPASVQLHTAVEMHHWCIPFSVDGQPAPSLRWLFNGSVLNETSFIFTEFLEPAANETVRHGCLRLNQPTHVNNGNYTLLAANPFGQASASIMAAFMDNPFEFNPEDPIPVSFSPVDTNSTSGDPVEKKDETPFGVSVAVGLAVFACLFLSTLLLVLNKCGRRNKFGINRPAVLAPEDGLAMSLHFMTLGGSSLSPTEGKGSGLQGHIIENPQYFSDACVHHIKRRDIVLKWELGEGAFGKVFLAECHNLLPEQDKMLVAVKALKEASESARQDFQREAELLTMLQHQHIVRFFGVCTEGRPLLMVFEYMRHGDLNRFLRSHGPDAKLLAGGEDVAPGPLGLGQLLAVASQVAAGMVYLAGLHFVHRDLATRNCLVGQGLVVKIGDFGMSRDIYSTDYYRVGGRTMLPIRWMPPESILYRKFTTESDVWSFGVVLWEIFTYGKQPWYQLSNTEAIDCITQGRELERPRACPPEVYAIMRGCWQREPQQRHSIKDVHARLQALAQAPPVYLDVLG

32-[^3H]3-deoxygedunin [[^3H]-deoxygedunin]
binding to TrkB ECD [1]: progressively bound
binding to TrkA [2]: did not bind to TrkA
binding to TrkB ICD [3]: not the intra-cellular domain (ICD)

CC(=O)O[C@@H]1CC2C(C)(C)[C@H](O)CC[C@]2(C)C2CC[C@@]3(C)[C@H](c4ccoc4)OC(=O)C4OC43[C@@]21C (stereo partly drawn) [alpha-dihydrogedunol (epoxy ring down), alphadihydrogedunol (epoxy ring down)]
protective effects on hippocampal neurons under OGD [4]: potent protective effects
protective effect (apoptosis inhibitory activity) [5]: protective effect
TrkB dimerization [6]: notably promoted TrkB dimerization
